Reference: publication PMC11956017, “Design of Benzyl-triazolopyrimidine-Based NADPH Oxidase Inhibitors Leads to the Discovery of a Potent Dual Covalent NOX2/MAOB Inhibitor” (Journal of Medicinal Chemistry, 2025)
“And” between values parts separate entries of the source, which are not always exact repeats. Identical values can stand only once. “Also recorded” adds a separate entry of the source.

Experiments:
human myoglobin = target: T1, human myoglobin (Homo sapiens, UniProt P02144); experiment: Native mass spectrometry of myoglobin reactivity; assay type: binding; conditions: myoglobin 1 µM, compound 5 µM and 20 µM, pH 7.5, 30 minutes
T1 construct: purchased Sigma Aldrich M6036; host or cells: human cardiac
T1 sequence (P02144 1-154): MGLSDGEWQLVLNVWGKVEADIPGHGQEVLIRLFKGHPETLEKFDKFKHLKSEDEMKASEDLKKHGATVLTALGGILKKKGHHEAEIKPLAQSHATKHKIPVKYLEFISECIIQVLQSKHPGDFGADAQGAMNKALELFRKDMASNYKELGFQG
Protocol: Protein samples were buffer-exchanged into 200 mM ammonium acetate (pH 7.5) through dialysis prior to native MS analyses. These samples were directly introduced into the mass spectrometer using gold-coated capillary needles prepared in-house.[63] Data were collected on a Q Exactive UHMR hybrid quadrupole-Orbitrap mass spectrometer (Thermo Fisher) with positive polarity. The instrument parameters used for MS spectra collection were the following: capillary voltage, 1.2 kV; scan range from 1000 to 20,000 m/z; HCD collision energy, 0–100 V; source fragmentation, 0 V; in-source trapping, 0 V. The ion transfer optics was set as follows: injection flatapole, 5 V; interflatapole lens, 4 V; bent flatapole, 2 V; transfer multipole, 0 V. The resolution of the instrument was 17,500 at m/z = 200 (transient time of 64 ms), the nitrogen pressure in the HCD cell was maintained at approximately 4 × 10^–10 mbar, and the source temperature was kept at 100 °C. The noise level was set at 3 rather than the default value of 4.64. Calibration of the instruments was performed using 10 mg/mL solution of cesium iodide in water. Data were analyzed using Xcalibur 3.0 (Thermo Scientific), NaViA,[64] and UniDec software packages.[65]

BV2 cells [1] = experiment: MTT viability assay in BV2 cells; assay type: cell-based, murine; conditions: 10 μM, LPS/IFN-γ stimulation, 48 h
Purified human NOX2 = target: T2, Purified human NOX2 (Homo sapiens, UniProt P04839); experiment: Purified human NOX2-p22phox, NADPH depletion assay; assay type: biochemical; conditions: for IC50: 200 nM NOX2, 240 μM NADPH, activated
T2 construct: NOX2 was expressed as native protein in X-CGD PLB-985 cells transduced with the RD114 pseudotyped MFGS-NOX2 vector; made in house; host or cells: X-CGD PLB-985 cells transduced with MFGS-NOX2; Cytosolic proteins made in E. coli
Protocol: The NADPH depletion assay on human NOX2 for IC50 determinations was performed as described[40],[42] with variations for covalent inhibition. Briefly, the catalytic activity was measured by monitoring the absorbance at 340 nm with a Cary 100 UV–vis spectrophotometer (Varian). A 200 nM purified NOX2-p22^phox heterodimer was added to a 200 μL reaction mix containing a 65 mM sodium phosphate buffer (pH 7.0), 50 μM FAD, 130 μM LiDS, and 1 μM recombinant p67^phox, p47^phox, and Rac1 Q61L. Inhibitors were added at varying concentrations (7 nM–200 μM) and incubated for 1 h at 25 °C. The reaction was started by the addition of 240 μM NADPH.

csNOX5 dehydrogenase = experiment: Intact protein mass spectrometry of csNOX5 dehydrogenase; assay type: binding, Cylindrospermum stagnale
Protocol: Approximately 1 mg mL^-1 protein was incubated with 300 μM FAD and 1 mM 9a at 4 °C for 1 h. A negative control reaction was performed by adding an equal volume of DMSO. Protein was denatured by adding 1% (v/v) formic acid. Chromatographic separation and mass spectrometry analysis were carried out as previously reported.[10] Analyses were carried out by ESI-qTOF-HRMS on an […] qTOF system (Sciex) embedding a Twin Sprayer ESI probe and coupled with an ExcionLC system (Sciex) controlled by SciexOS software v. 3.0.0. The injection volume was 10 μL (10 μg), and chromatographic separation was carried out with a bioZen WidePore C4 column (a 100 mm length, a 2.1 mm diameter, and a 2.6 μm particle size; Phenomenex).

BV2 cells [2] = experiment: qRT-PCR of iNOS, IL-1β and IL-6 transcripts in BV2 cells; assay type: cell-based, murine
Protocol: BV2 murine microglial cells were cultured in DMEM supplemented with 10% heat-inactivated FBS, 100 IU/mL penicillin G, […] streptomycin, and […] amphotericin B and grown at 37 °C in 5% CO2 and a humidified atmosphere. […]
BV2 cells were lysed in a Trizol reagent for isolation of RNA. A reverse transcription reaction was performed in a thermocycler (MJMini personal thermal cycler; Biorad) using an IScript Reverse Transcription Supermix (Biorad) according to the manufacturer’s protocol, under the following conditions: incubation at 25 ° C for 5 min, reverse transcription at 42 ° C for 30 min, and inactivation at 85 ° C for 5 min. Real-time PCR (rtPCR) was carried out in an I-Cycler IQ Multicolor rtPCR detection system (Biorad) using a SsoFast EvaGreen Supermix (Biorad) according to the manufacturer’s instructions. The PCR protocol consisted of 40 cycles of denaturation at 95 ° C for 30 s and annealing/extension at 60 ° C for 30 s. For quantification analysis, the comparative threshold cycle (Ct) method was used. The Ct values from each gene were normalized to the Ct value of GAPDH in the same RNA samples. Relative quantification was performed using the 2^–ΔΔCt method (Schmittgen and Livak, 2008) and expressed as a fold change in arbitrary values. Primers used are as follows: • iNOS fw: […]; rev: […]. • IL-1β fw: […]; rev: […]. • IL-6 fw: […]; rev: […].

[3] = 10 μM, LPS/IFN-γ, 48 h compound treatment

| IC50 (Purified human NOX2) [µM] | potency on purified NOX2 relative to VAS2870 (more potent) (Purified human NOX2; purified NOX2) | increase in molecular weight of csNOX5 dehydrogenase after reaction (csNOX5 dehydrogenase; 1 mM inhibitor, 4 °C, 1 h, vs DMSO-treated protein) | SMILES | adduct formation with myoglobin (human myoglobin) | BV2 cell viability (BV2 cells [1]) | covalent binding to csNOX5 dehydrogenase active-site cysteine (csNOX5 dehydrogenase; intact protein ESI-qTOF-HRMS) | decrease in IL-1β mRNA level (BV2 cells [2]; [3]) [fold] | decrease in IL-6 mRNA level (BV2 cells [2]; [3]) [fold] | decrease in iNOS mRNA level (BV2 cells [2]; [3]) | effects on iNOS, IL-1β and IL-6 mRNA without inhibitor pretreatment (BV2 cells [2]; cells pre-stimulated with LPS/IFN-γ for 24h, then 10 µM compound for 24 h) |
| --- | --- | --- | --- | --- | --- | --- | --- | --- | --- | --- |
| 0.155 ± 0.03 | over 20 fold | 290 Da and 290.3 Da | C#CCN(C)Cc1ccc(Cn2nnc3c(Sc4nc5ccccc5o4)ncnc32)cc1 [Compound 9a, N-(4-((7-(Benzo[d]oxazol-2-ylthio)-3H-[1,2,3]triazolo[4,5-d]pyrimidin-3-yl)methyl)benzyl)-N-methylprop-2-yn-1-amine] | no adduct formation was detected; also recorded: did not bind | negligible effects on cells viability | covalent binding | 4 | 4 | over 10 fold | negligible |
| 20.1 ± 0.5 |  |  | C#CCNC(=O)c1ccc(Cn2nnc3c(Sc4nc5ccccc5o4)ncnc32)cc1 [Compound 8b, (4-((7-Benzo[d]oxazol-2-yl-thio)-3H-[1,2,3]triazole[4,5-d]pyrimidin-3-yl)methyl)-N-(prop-2-in-1-yl)benzamide] |  |  |  |  |  |  |  |
| 3.3 ± 0.06 |  |  | CCCNC(=O)c1ccc(Cn2nnc3c(Sc4nc5ccccc5o4)ncnc32)cc1 [Compound 8a, (4-((7-Benzo[d]oxazol-2-yl-thio)-3H-[1,2,3]triazole[4,5-d]pyrimidin-3-yl)methyl)-N-(propyl)benzamide] |  |  |  |  |  |  |  |
